Laboratory results taken from US20250275965A1, “COMPOUNDS AS CASEIN KINASE INHIBITORS” (GRITSCIENCE BIOPHARMACEUTICALS CO.,LTD., priority 2020, published 2025).

Columns and labels:
CK1δ = CK1δ (Homo sapiens, UniProt P48730); test: CK1δ kinase assay (Kinase-Glo); type: biochemical; conditions: 10 μM ATP, 2 nM wild type kinase, 85 min at 25° C.
Procedure: The reaction mixture was incubated for 85 min at 25° C.; detection was carried out as described for the Kinase-Glo Assay (Promega). Luminescent output was measured on the Perkin Elmer Envision plate reader (PerkinElmer, Waltham, MA).

[1] = Intrinsic clearance in liver microsomes (human); type: in vitro ADME; conditions: Human liver microsomes 0.5 mg/mL, 2 μM compound, 37° C.; for microsomal CLint at 2 μM: read-out: in vitro CLint (μL/min/mg protein); for half-life at 2 μM: read-out: in vitro t1/2
Procedure: (§1) 1. The master solution was prepared according to Table 4.
(§2) 2. Three separated experiments were performed as follows. a) With NADPH: 10 μL of 20 mg/mL liver microsomes and 40 μL of 10 mM NADPH were added to the incubations. The final concentrations of microsomes and NADPH were 0.5 mg/mL and 1 mM, respectively. b) Without NADPH: 10 μL of 20 mg/mL liver microsomes and 40 μL of ultra-pure H2O were added to the incubations. The final concentration of microsomes was 0.5 mg/mL. c) Heat-inactivated microsomes without NADPH: 10 μL of 20 mg/mL heat-inactivated liver microsomes and 40 μL of ultra-pure H2O were added to the incubations. The final concentration of microsomes was 0.5 mg/mL.
(§3) 3. The reaction was started with the addition of 4 μL of 200 μM test compound solution or control compound solution at the final concentration of 2 μM and carried out at 37° C.
(§4) 4. Aliquots of 50 μL were taken from the reaction solution at 0, 15, 30, 45 and 60 min. The reaction was stopped by the addition of 4 volumes of cold acetonitrile with IS (100 nM alprazolam, 200 nM labetalol, 200 nM caffeine and 2 μM ketoprofen). Samples were centrifuged at 3, 220 g for 40 minutes.
(§5) All calculations were carried out using Microsoft Excel.
(§6) Peak areas were determined from extracted ion chromatograms. The slope value, k, was determined by linear regression of the natural logarithm of the remaining percentage of the parent drug vs. incubation time curve.
(§7) The in vitro half-life (in vitro t1/2) was determined from the slope value:
(§8) Conversion of the in vitro t1/2 (min) into the in vitro intrinsic clearance (in vitro CLint, in μL/min/mg protein) was done using the following equation (mean of duplicate determinations): […]

in vitro = conditions: human, Caco-2, pH 7.4
Procedure: 1) 50 μL and 25 mL of cell culture medium were added to each well of the Transwell insert and reservoir, respectively. And then the HTS transwell plates were incubated at 37° C., 5% CO2 for 1 hour before cell seeding.
2) Caco-2 cells were diluted to 6.86×10^5 cells/mL with culture medium and 50 μL of cell suspension were dispensed into the filter well of the 96-well HTS Transwell plate. Cells were cultivated for 14-18 days in a cell culture incubator at 37° C., 5% CO2, 95% relative humidity. Cell culture medium was replaced every other day, beginning no later than 24 hours after initial plating.
10 mM stock solutions of test compounds were prepared in DMSO. The stock solutions of positive controls were prepared in DMSO at the concentration of 10 mM.
1) Medium was removed from the reservoir and each Transwell insert and replaced with prewarmed fresh culture medium.
2) Transepithelial electrical resistance (TEER) across the monolayer was measured using Millicell Epithelial Volt-Ohm measuring system (Millipore, USA).
3) The Plate was returned to the incubator once the measurement was done.
The TEER value was calculated according to the following equation: TEER measurement (ohms)*Area of membrane (cm^2)=TEER value (ohm·cm^2) TEER value should be greater than 230 ohm·cm^2, which indicates the well-qualified Caco-2 monolayer.
1) The Caco-2 plate was removed from the incubator and washed twice with pre-warmed HBSS (10 mM HEPES, pH 7.4), and then incubated at 37° C. for 30 minutes.
2) The stock solutions of control compounds and test compounds were diluted in DMSO to get 1 mM solutions and then diluted with HBSS (10 mM HEPES, pH 7.4) get 5 μM working solutions. The final concentration of DMSO in the incubation system was 0.5%.
3) To determine the rate of drug transport in the apical to basolateral direction. 125 μL of 5 μM working solution of control compound and test compounds were added to the Transwell insert (apical compartment), and transfer 50 μL sample (DO sample) immediately from the apical compartment to a new 96-well plate. Fill the wells in the receiver plate (basolateral compartment) with 235 μL of HBSS (10 mM HEPES, pH 7.4).
4) To determine the rate of drug transport in the basolateral to apical direction. 285 μL of 5 μM working solution of control compound and test compounds were to the receiver plate wells (basolateral compartment), and transfer 50 μL sample (DO sample) immediately from the basolateral compartment to a new 96-well plate. Fill the wells in the Transwell insert (apical compartment) with 75 μL of HBSS (10 mM HEPES, pH 7.4). The assay was performed in duplicate.
5) The plates were incubated at 37° C. for 2 hours.
Samples were Vortexed for 5 minutes and then centrifuged at 3,220 g for 40 minutes. An aliquot of 100 μL of the supernatant was mixed with an appropriate volume of ultra-pure water before LC-MS/MS analysis.
7) To determine the Lucifer Yellow leakage after 2 hour transport period, stock solution of Lucifer yellow was prepared in water and diluted with HBSS (10 mM HEPES, pH 7.4) to reach the final concentration of 100 μM. 100 μL of the Lucifer yellow solution was added to each Transwell insert (apical compartment), followed by filling the wells in the receiver plate (basolateral compartment) with 300 μL of HBSS (10 mM HEPES, pH 7.4). The plates were Incubated at 37° C. for 30 mins. 80 μL samples were removed directly from the apical and basolateral wells (using the basolateral access holes) and transferred to wells of new 96 wells plates. The Lucifer Yellow fluorescence (to monitor monolayer integrity) signal was measured in a fluorescence plate reader at 485 nm excitation and 530 nm emission.
The apparent permeability coefficient (Papp), in units of centimeter per second, can be calculated for Caco-2 drug transport assays using the following equation: […]

[2] = Intrinsic clearance in liver microsomes (mouse); type: in vitro ADME; conditions: Mouse liver microsomes 0.5 mg/mL, 2 μM compound, 37° C.; for microsomal CLint at 2 μM: read-out: in vitro CLint (μL/min/mg protein); for half-life at 2 μM: read-out: in vitro t1/2
Procedure: as §1, §2, §3, §4, §5, §6, §7, §8

Sequence of CK1δ (P48730 whole entry): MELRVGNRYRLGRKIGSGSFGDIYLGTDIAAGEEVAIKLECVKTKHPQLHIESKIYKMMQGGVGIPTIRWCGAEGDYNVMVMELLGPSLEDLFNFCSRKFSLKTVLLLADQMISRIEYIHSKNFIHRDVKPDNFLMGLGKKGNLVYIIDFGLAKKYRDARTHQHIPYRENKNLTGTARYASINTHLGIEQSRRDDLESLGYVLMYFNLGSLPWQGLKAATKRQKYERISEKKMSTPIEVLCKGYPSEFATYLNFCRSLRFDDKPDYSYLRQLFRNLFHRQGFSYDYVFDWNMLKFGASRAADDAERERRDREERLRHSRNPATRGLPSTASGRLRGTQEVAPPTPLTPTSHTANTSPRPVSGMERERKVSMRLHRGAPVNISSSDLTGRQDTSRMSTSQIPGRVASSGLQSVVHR

SMILES	EC50 (CK1δ) [nM]	microsomal CLint at 2 μM [1] [µL/min/mg]	half-life at 2 μM [1] [h]	Papp A→B at 2 h, 5 μM (in vitro) [×10⁻⁶ cm/s]	Papp B→A at 2 h, 5 μM (in vitro) [×10⁻⁶ cm/s]	efflux ratio at 2 h, 5 μM (in vitro)	microsomal CLint at 2 μM [2] [µL/min/mg]	half-life at 2 μM [2] [h]
Cn1cc(-c2ccnn3c(N)cnc23)c(-c2ccc(F)cc2)n1 [Compound I-8, 8-(3-(4-fluorophenyl)-1-methyl-1H-pyrazol-4-yl)imidazo[1,2-b]pyridazin-3-amine]	3300	–	–	–	–	–	–	–
Cn1cc(-c2ccnn3cc(CN)nc23)c(-c2ccc(F)cc2)n1 [Compound I-14]	200	0.93	24.9	13	31.5	2.43	5.9	3.92
Cn1cc(-c2ccnn3cnnc23)c(-c2ccc(F)cc2)n1 [Compound I-10, 8-(3-(4-fluorophenyl)-1-methyl-1H-pyrazol-4-yl)-[1,2,4]triazo-lo[4,3-b]pyridazine]	7900	–	–	–	–	–	–	–
Cn1cc(-c2ccnn3cccc23)c(-c2ccc(F)cc2)n1 [Compound I-9, 4-(3-(4-fluorophenyl)-1-methyl-1H-pyrazol-4-yl)pyrrolo[1,2-b]pyridazine]	2500	–	–	–	–	–	–	–
Cn1cc(-c2ccnn3cc(N)nc23)c(-c2ccc(F)cc2)n1 [Compound I-13, 8-(3-(4-fluorophenyl)-1-methyl-1H-pyrazol-4-yl)imidazo[1,2-b]pyridazin-2-amine]	2800	–	–	–	–	–	–	–
Cn1cc(-c2ccnn3cc(C(C)(C)O)nc23)c(-c2ccc(F)cc2)n1 [Compound I-17, 2-(8-(3-(4-fluorophenyl)-1-methyl-1H-pyrazol-4-yl)imidazo[1,2-b]pyridazin-2-yl)propan-2-ol]	400	3.25	7.11	25.3	19.4	0.77	19.1	1.21
Cc1cn2nccc(-c3cn(C)nc3-c3ccc(F)cc3)c2n1 [Compound I-4, 8-(3-(4-fluorophenyl)-1-methyl-1H-pyrazol-4-yl)-2-methyli-midazo[1,2-b]pyridazine]	2700	–	–	–	–	–	–	–
Cn1cc(-c2ccnc3ccnn23)c(-c2ccc(F)cc2)n1 [Compound I-1, 7-(3-(4-fluorophenyl)-1-methyl-1H-pyrazol-4-yl)pyrazolo[1,5-a]pyrimidine]	15000	–	–	–	–	–	–	–
COC(=O)c1cn2nccc(-c3cn(C)nc3-c3ccc(F)cc3)c2n1 [Compound I-12, methyl 8-(3-(4-fluorophenyl)-1-methyl-1H-pyrazol-4-yl)imidazo[1,2-b]pyridazine-2-carboxylate]	8600	–	–	–	–	–	–	–
CNCc1cn2nccc(-c3cn(C)nc3-c3ccc(F)cc3)c2n1 [Compound I-22, 1-(8-(3-(4-fluorophenyl)-1-methyl-1H-pyrazol-4-yl)imidazo[1,2-b]pyridazin-2-yl)-N-methylmethanamine]	300	2.64	8.76	12.7	32.1	2.52	18.9	1.22

More lines, now with the values ahead:

EC50 (CK1δ) [nM]	microsomal CLint at 2 μM [1] [µL/min/mg]	half-life at 2 μM [1] [h]	Papp A→B at 2 h, 5 μM (in vitro) [×10⁻⁶ cm/s]	Papp B→A at 2 h, 5 μM (in vitro) [×10⁻⁶ cm/s]	efflux ratio at 2 h, 5 μM (in vitro)	microsomal CLint at 2 μM [2] [µL/min/mg]	half-life at 2 μM [2] [h]	SMILES
800	7.47	3.09	5.28	18.4	3.49	24.7	0.935	CC(=O)N1CCn2nc(-c3ccc(F)cc3)c(-c3ccnc4[nH]ccc34)c2C1 [Compound I-24, 1-(2-(4-fluorophenyl)-3-(1H-pyrrolo[2,3-b]pyridin-4-yl)-6,7-dihydropyrazolo[1,5-a]pyrazin-5(4H)-yl)ethan-1-one]
25000	–	–	–	–	–	–	–	CNc1cn2nccc(-c3cn(C)nc3-c3ccc(F)cc3)c2n1 [Compound I-19, 8-(3-(4-fluorophenyl)-1-methyl-1H-pyrazol-4-yl)-N-methyli-midazo[1,2-b]pyridazin-2-amine]
500	–	–	24.8	25.2	1.02	38.8	0.595	Cn1cc(-c2ccnn3cc(C(N)=O)nc23)c(-c2ccc(F)cc2)n1 [Compound I-15, 8-(3-(4-fluorophenyl)-1-methyl-1H-pyrazol-4-yl)imidazo[1,2-b]pyridazine-2-carboxamide]
5300	–	–	–	–	–	–	–	CC(=O)NCc1cn2nccc(-c3cn(C)nc3-c3ccc(F)cc3)c2n1 [Compound I-21, N-((8-(3-(4-fluorophenyl)-1-methyl-1H-pyrazol-4-yl)imidazo [1,2-b]pyridazin-2-yl)methyl)acetamide]
700	12.5	1.85	22.4	20.8	0.93	66.8	0.346	CNC(=O)c1cn2nccc(-c3cn(C)nc3-c3ccc(F)cc3)c2n1 [Compound I-16, 8-(3-(4-fluorophenyl)-1-methyl-1H-pyrazol-4-yl)-N-methyli-midazo[1,2-b]pyridazine-2-carboxamide]
2500	–	–	–	–	–	–	–	CC(=O)Nc1cn2nccc(-c3cn(C)nc3-c3ccc(F)cc3)c2n1 [Compound I-20, N-(8-(3-(4-fluorophenyl)-1-methyl-1H-pyrazol-4-yl)imidazo [1,2-b]pyridazin-2-yl)acetamide]
